System: intracellular HPV L1 and L2
Assay: Immunoblot detection of intracellular L1 and L2
Type: cell-based, HPV16
Conditions: CHO-K1 cells, HPV-GFP MOI of 50; 500 nM 13-46st, 100 nM BafA1 or both for 24 h
Method: FIG 5 The L2N lipopeptide blocks HPV entry without affecting HPV capsid priming and internalization. (A) Cell binding and uptake of L2N lipopeptide. HeLa cells were incubated with 500 nM FITC-m13-46st peptide for indicated times. Images were captured after three PBS washes. Bar, 25 μm. (B) L2N lipopeptide inhibits HPV-GFP entry. HeLa cells were treated with 500 nM L2N lipopeptide (13-46st) before (pre), during (co), or after (post) HPV-GFP inoculation. Mock, no peptide treatment. GFP intensity was analyzed at 36 hpi. Bar, 200 μm. (C) Peptide addition/withdrawal assays were performed as indicated in the schematic diagram (top). CHO-K1 cells were incubated with HPV-Lucia at 4°C for 2 h. […] Lucia activity was analyzed at 40 hpi. […] Intracellular L1 and L2 levels were determined by immunoblotting with MD2H11 and JWW-1, respectively. […] HPV L2 JWW-1 epitope exposure was analyzed by immunostaining with JWW-1 antibody (in red). […]
FIG 6 The L2N lipopeptide blocks TGN trafficking of HPV, leading to rapid virion degradation. […] Localization of the TGN (green) was analyzed by immunostaining with anti-P230 antibody. […] The ratios of EdU puncta in the nucleus (B) or in the TGN (C) were quantified based on representative images under each condition. P values were determined by ordinary one-way ANOVA with Dunnett’s multiple-comparison test (n = 10) ****, P < 0.0001. […]

**Q.** How did the “intracellular full-length L1 and L2 levels” value turn out when `CO/C1=C\C(C)=C\[C@@H](C)[C@@H](O)[C@@H](C)C/C(C)=C/C=C/[C@H](OC)[C@@H]([C@@H](C)[C@@H](O)[C@H](C)[C@@]2(O)C[C@@H](O)[C@H](C)[C@@H](C(C)C)O2)OC1=O` [BafA1, bafilomycin A1] was run?
**A.** prevented L1 and L2 degradation

— PMC6686047, “Efficient Inhibition of Human Papillomavirus Infection by L2 Minor Capsid-Derived Lipopeptide” (mBio, 2019)
